Test results taken from patent publication US9302999B2, “Substituted triazoles as herbicides” (E. I. DU PONT DE NEMOURS AND COMPANY, priority 2012, dated 2016).

Assays:
Type in all cases: in vivo
[1] = tested on: galium (catchweed bedstraw, Galium aparine); experiment: Test D pre-/postemergence: galium; conditions: Postemergence
Method in brief: (§1)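 Visual 0–100 rating versus untreated controls (0 no effect, 100 complete control), taken 14 to 21 days after treatment in a controlled growth environment. Preemergence: silt loam soil. Postemergence: peat moss/vermiculite medium, plants 2 to 18 cm, 1- to 4-leaf stage. Solvent mixture with surfactant.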

[2] = tested on: ducksalad (Heteranthera limosa); experiment: Test B flooded paddy: ducksalad; conditions: Flood; 250 g ai/ha; applied to paddy water at 2-leaf stage; visually evaluated after 13 to 15 days
Method in brief: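 Paddy-water application: seedlings at 2-leaf stage, flood depth 3 cm maintained for the test duration. Evaluation after 13–15 days in the greenhouse by eye relative to controls; 0–100 scale.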

[3] = tested on: ragweed (common ragweed, Ambrosia elation); experiment: Test C pre-/postemergence: ragweed
Method in brief: (§2)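 Preemergence on seeds in loam/sand, postemergence on 2–18 cm (1–4-leaf) plants in peat-based medium; compounds in non-phytotoxic solvent with surfactant. After 13–15 days in greenhouse, visual rating versus controls, 0 (no effect) to 100 (complete control).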

[4] = tested on: large crabgrass (Digitaria sanguinalis); experiment: Test C pre-/postemergence: large crabgrass
Method in brief: as §2

kochia (Kochia scoparia) = experiment: Test D pre-/postemergence: kochia; conditions: Postemergence
Method in brief: as §1

[5] = tested on: velvetleaf (Abutilon theophrasti); experiment: Test C pre-/postemergence: velvetleaf
Method in brief: as §2

[6] = tested on: field violet (Viola arvensis); experiment: Test D pre-/postemergence: field violet; conditions: Postemergence
Text: Seeds of plant species selected from bluegrass (annual bluegrass, Poa annua), blackgrass (Alopecurus myosuroides), canarygrass (Phalaris minor), chickweed (common chickweed, Stellaria media), galium (catchweed bedstraw, Galium aparine), bromegrass, downy (downy bromegrass, Bromus tectorum), field poppy (Papaver rhoeas), field violet (Viola arvensis), foxtail, green (green foxtail, Setaria viridis), deadnettle (henbit deadnettle, Lamium amplexicaule), ryegrass, Italian (Italian ryegrass, Lolium multiflorum), kochia (Kochia scoparia), lambsquarters (Chenopodium album), oilseed rape (Brassica napus), pigweed (Amaranthus retroflexus), Russian thistle (Salsola iberica), chamomile (scentless chamomile, Matricaria inodora), speedwell (bird's-eye speedwell, Veronica persica), barley, spring (spring barley, Hordeum vulgare), wheat, spring (spring wheat, Triticum aestivum), buckwheat, wild (wild buckwheat, Polygonum convolvulus), mustard, wild (wild mustard, Sinapis arvensis), oat, wild (wild oat, Avena fatua), radish, wild (wild radish, Raphanus raphanistrum), windgrass (Apera spica-venti), barley, winter (winter barley, Hordeum vulgare), and wheat, winter (winter wheat, Triticum aestivum) were planted into a silt loam soil and treated preemergence with test chemicals formulated in a non-phytotoxic solvent mixture which included a surfactant. At the same time, these same crop and weed species were planted in pots containing the planting medium comprising spaghnum peat moss, vermiculite, wetting agent and starter nutrients and treated with postemergence applications of the test chemicals formulated in the same manner. Plants ranged in height from 2 to 18 cm (1- to 4-leaf stage).
(§3) Treated plants and controls were maintained in a controlled growth environment for 14 to 21 days after which time all species were compared to controls and visually evaluated. Plant response ratings, summarized in Table D, are based on a scale of 0 to 100 where 0 is no effect and 100 is complete control. A dash (-) response means no test result.

[7] = tested on: common (oilseed) sunflower (Helianthus annuus); experiment: Test C pre-/postemergence: sunflower; conditions: Preemergence
Text: Seeds of plant species selected from blackgrass (Alopecurus myosuroides), bromegrass, downy (downy bromegrass, Bromus tectorum), foxtail, green (green foxtail, Setaria viridis), ryegrass, Italian (Italian ryegrass, Lolium multiflorum), winter wheat (Triticum aestivum), wild oat (Avena fatua), galium (catchweed bedstraw, Galium aparine), bermudagrass (Cynodon dactylon), surinam grass (Brachiaria decumbens), cocklebur (common cocklebur, Xanthium strumarium), corn (Zea mays), large crabgrass (Digitaria sanguinalis), woolly cupgrass (Eriochloa villosa), foxtail, giant (giant foxtail, Setaria faberii), goosegrass (Eleusine indica), johnsongrass (Sorghum halepense), kochia (Kochia scoparia), lambsquarters (Chenopodium album), morningglory (Ipomoea coccinea), nightshade (eastern black nightshade, Solanum ptycanthum), nutsedge, yellow (yellow nutsedge, Cyperus esculentus), pigweed (Amaranthus retroflexus), ragweed (common ragweed, Ambrosia elation), soybean (Glycine max), common (oilseed) sunflower (Helianthus annuus), Russian thistle (Salsola kali) and velvetleaf (Abutilon theophrasti) were planted into a blend of loam soil and sand and treated preemergence with test chemicals formulated in a non-phytotoxic solvent mixture which included a surfactant.
At the same time, plants selected from these crop and weed species and also barley (winter barley, Hordeum vulgare), canarygrass (Phalaris minor), chickweed (common chickweed, Stellaria media) windgrass (Apera spica-venti) and deadnettle (henbit deadnettle, Lamium amplexicaule) were planted in pots containing Redi-Earth® planting medium (Scotts Company, 14111 Scottslawn Road, Marysville, Ohio 43041) comprising spaghnum peat moss, vermiculite, wetting agent and starter nutrients and treated with postemergence applications of test chemicals formulated in the same manner. Plants ranged in height from 2 to 18 cm (1- to 4-leaf stage) for postemergence treatments.
as §3, with “greenhouse” for “controlled growth environment”, “13” for “14”, “15 days,” for “21 days”, “C,” for “D,”

[8] = 31 g ai/ha, scale 0 to 100 (0 no effect, 100 complete control)
[9] = 62 g ai/ha, scale 0 to 100 (0 no effect, 100 complete control)
[10] = 125 g ai/ha, scale 0 to 100, 0 no effect, 100 complete control
[11] = 250 g ai/ha, scale 0 to 100 (0 no effect, 100 complete control)
[12] = Postemergence, 31 g ai/ha, scale 0 to 100 (0 no effect, 100 complete control)
[13] = Postemergence, 125 g ai/ha, scale 0 to 100, 0 no effect, 100 complete control
[14] = Postemergence, 250 g ai/ha, scale 0 to 100
[15] = Postemergence, 62 g ai/ha, scale 0 to 100 (0 no effect, 100 complete control)
[16] = Postemergence, 250 g ai/ha, scale 0 to 100 (0 no effect, 100 complete control)
[17] = Preemergence, 31 g ai/ha, scale 0 (no effect) to 100 (complete control)
[18] = Preemergence, 62 g ai/ha, scale of 0 to 100, 0 is no effect, 100 is complete control
[19] = Preemergence, 125 g ai/ha, scale 0 to 100, 0 no effect, 100 complete control
[20] = Preemergence, 250 g ai/ha, scale 0 to 100, 0 no effect, 100 complete control
[21] = Preemergence, 31 g ai/ha, scale of 0 to 100, 0 is no effect, 100 is complete control

SMILES	Plant response rating, Ducksalad (0 to 100 scale, 0 is no effect, 100 is complete control) [2]	Plant response rating, Ragweed [3, 12]	Plant response rating, Ragweed [3, 13]	Plant response rating, Ragweed [3, 14]	Plant response rating, Crabgrass, Large [4, 12]	Plant response rating, Crabgrass, Large [4, 15]	Plant response rating, Crabgrass, Large [4, 13]	Plant response rating, Crabgrass, Large [4, 14]	Plant response rating, Velvetleaf [5, 12]	Plant response rating, Velvetleaf [5, 15]	Plant response rating, Velvetleaf [5, 13]	Plant response rating, Velvetleaf [5, 14]	Plant response rating, Ragweed [3, 15]	Plant response rating, Ragweed [3, 18]	Plant response rating, Ragweed [3, 19]	Plant response rating, Ragweed [3, 20]	Plant response rating, Crabgrass, Large [4, 18]	Plant response rating, Crabgrass, Large [4, 19]	Plant response rating, Crabgrass, Large [4, 20]	Plant response rating, Velvetleaf [5, 18]	further results
Cc1nn(-c2ccnc(C(F)(F)F)c2)nc1Cc1ccnc(C(F)(F)F)c1 [Compound 137]	50	65	75	85	15	40	40	65	35	55	55	70									Plant response rating: Galium [1, 8]: 20; Plant response rating: Galium [1, 9]: 40; Plant response rating: Galium [1, 10]: 75; Plant response rating: Galium [1, 11]: 75; Plant response rating, Galium ([1]; 16 g ai/ha, scale 0 to 100): 20; Plant response rating: Kochia (kochia (Kochia scoparia); [8]): 85; Plant response rating: Kochia (kochia (Kochia scoparia); [9]): 90; Plant response rating: Kochia (kochia (Kochia scoparia); [10]): 95; Plant response rating: Kochia (kochia (Kochia scoparia); [11]): 100; Plant response rating, Kochia (kochia (Kochia scoparia); 16 g ai/ha, scale 0 to 100): 75; Plant response rating: Field Violet [6, 8]: 70; Plant response rating: Field Violet [6, 9]: 85; Plant response rating: Field Violet [6, 10]: 90; Plant response rating: Field Violet [6, 11]: 95; Plant response rating, Field Violet ([6]; 16 g ai/ha, scale 0 to 100): 50
CCCc1nn(-c2ccc(C(F)(F)F)c(F)c2)nc1Oc1ccnc(C(F)(F)F)c1 [Compound 185]	65	75	95		25	40	60	80	55	80	85		90	80	95	95	100	100	100	80	Plant response rating, Ragweed [3, 16]: 95; Plant response rating, Ragweed [3, 17]: 40; Plant response rating, Crabgrass, Large [4, 17]: 100; Plant response rating, Velvetleaf [5, 16]: 90; Plant response rating, Velvetleaf [5, 17]: 60; Plant response rating, Velvetleaf [5, 19]: 100; Plant response rating, Velvetleaf [5, 20]: 100
Cc1nn(-c2ccc(C(F)(F)F)cc2)nc1Cc1ccnc(C(F)(F)F)c1 [Compound 47, 4-[[5-methyl-2-[4-(trifluoromethyl)phenyl]-2H-1,2,3-triazol-4-yl]methyl]-2-(trifluoromethyl)pyridine]		45	75	95	5	15	35	50	65	70	80	90	65	15	45	80	98	100	100	60	Plant response rating, Ragweed [3, 21]: 5; Plant response rating, Sunflower ([7]; 31 g ai/ha, scale of 0 to 100, 0 is no effect, 100 is complete control): 0; Plant response rating, Sunflower ([7]; 62 g ai/ha, scale of 0 to 100, 0 is no effect, 100 is complete control): 0; Plant response rating, Sunflower [7, 10]: 0; Plant response rating, Sunflower ([7]; 250 g ai/ha, scale 0 to 100, 0 no effect, 100 complete control): 10; Plant response rating, Crabgrass, Large [4, 21]: 45; Plant response rating, Velvetleaf [5, 21]: 45; Plant response rating, Velvetleaf [5, 19]: 90; Plant response rating, Velvetleaf [5, 20]: 100
